# Values joined by “and” are separate entries in the source; they are usually repeats but may differ in a detail not shown here. Equal values may be shown once. Read-outs that look alike come from different tables or passages of the source.
# Key:
# CYP2A6 = target: T1, CYP2A6 (Homo sapiens, UniProt P11509); assay: CYP2A6 inhibition assay (substrate coumarin)
# T1 sequence (P11509 1-494): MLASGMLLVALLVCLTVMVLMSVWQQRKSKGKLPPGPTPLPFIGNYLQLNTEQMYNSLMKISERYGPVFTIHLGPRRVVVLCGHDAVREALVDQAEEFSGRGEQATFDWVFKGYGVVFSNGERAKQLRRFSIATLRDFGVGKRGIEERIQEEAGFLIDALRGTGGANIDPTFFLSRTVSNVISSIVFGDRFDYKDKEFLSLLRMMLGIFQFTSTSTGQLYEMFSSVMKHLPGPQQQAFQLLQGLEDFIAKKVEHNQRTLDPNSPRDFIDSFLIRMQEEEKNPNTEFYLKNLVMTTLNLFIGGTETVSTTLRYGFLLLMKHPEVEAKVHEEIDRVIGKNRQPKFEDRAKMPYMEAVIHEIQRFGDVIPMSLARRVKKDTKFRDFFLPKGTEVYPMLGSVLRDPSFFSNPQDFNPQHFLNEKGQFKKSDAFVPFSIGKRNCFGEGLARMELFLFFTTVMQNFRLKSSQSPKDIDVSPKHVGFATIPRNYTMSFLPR
# Text: (§1) The CYP inhibition assays used microsomes (Supersomes®, Gentest Corp., Woburn, Mass.) prepared from insect cells, each expressing an individual CYP subtype (CYP1A2, CYP2A6, CYP2B6, CYP2C8, CYP2C9, CYP2C19, CYP2D6, CYP2E1 or CYP3A4) expressed from the corresponding human CYP cDNA using a baculovirus expression vector. The microsomes also incorporated supplemental cDNA-expressed human reductase and/or cytochrome b5, as these enzymes stimulate the activity of the CYPs, allowing for a reduction in the amount of enzyme required per reaction (Gentest Corp.). The assays monitored, via fluorescence detection, the formation of a fluorescent metabolite following incubation of the microsomes with a specific CYP substrate. […] Reactions (0.2 mL) were performed in 96-well microtitre plates at 37° C. in the presence of an NADPH regenerating system [NADP+, glucose-6-phosphate (G6P), glucose-6-phosphate dehydrogenase (G6PDH)] and MgCl2. […] All determinations were performed in duplicate. The reagent solutions used for all of the CYP subtype assays, except CYP2C19 and CYP3A4, were prepared by MBDI. For CYP2C19 and CYP3A4, complete reagent kits purchased from Gentest Corp. (CYP2C19/CEC: Cat. No. HTS-4000, Lot No. 1; CYP3A4/BFC: Cat. No. HTS-1000, Lot No. 1) were used to perform the assays.
# (§2) Eight inhibitor and test compound concentrations were tested using 3-fold serial dilutions. The microtitre plates containing 0.1 mL/well of the latter mixture were pre-warmed to 37° C. in an incubator. […] The amount of metabolic product formed was quantified by fluorescence detection in a fluorescence plate reader utilizing excitation and emission filters that had been optimized for the detection of each metabolite.
# (§3) Data Analysis—The mean of the duplicate fluorescent signals in the presence and absence (vehicle control) of each compound was calculated and corrected for the background noise. Percent inhibition was calculated as the difference in the corrected fluorescent signals in the absence and presence of the compound, divided by the corrected fluorescent signal in the absence of compound, multiplied by 100%.
# CYP2B6 = target: T2, CYP2B6 (Homo sapiens, UniProt P20813); assay: CYP2B6 inhibition assay (substrate EFC)
# T2 sequence (P20813 1-491): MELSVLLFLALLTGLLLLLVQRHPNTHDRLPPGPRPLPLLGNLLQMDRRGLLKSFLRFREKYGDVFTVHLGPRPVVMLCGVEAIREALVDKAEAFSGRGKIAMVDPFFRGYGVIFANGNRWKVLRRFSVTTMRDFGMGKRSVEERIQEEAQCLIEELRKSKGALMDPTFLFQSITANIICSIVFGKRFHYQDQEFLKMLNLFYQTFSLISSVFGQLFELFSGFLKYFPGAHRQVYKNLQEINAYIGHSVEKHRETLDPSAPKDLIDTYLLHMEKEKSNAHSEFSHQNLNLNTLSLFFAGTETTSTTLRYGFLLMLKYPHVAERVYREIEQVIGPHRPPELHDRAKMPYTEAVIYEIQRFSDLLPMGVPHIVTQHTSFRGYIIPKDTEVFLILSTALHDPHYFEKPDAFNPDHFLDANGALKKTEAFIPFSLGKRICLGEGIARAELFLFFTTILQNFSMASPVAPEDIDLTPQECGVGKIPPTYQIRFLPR
# Text: as §1, §2, §3
# CYP2E1 = target: T3, CYP2E1 (Homo sapiens, UniProt P05181); assay: CYP2E1 inhibition assay (substrate MFC); type: in vitro ADME
# T3 construct: purchased Gentest Corp; host or cells: insect cells (baculovirus)
# Description: All determinations were performed in duplicate.
# [1] = test system: patients with mild to moderate hypertension, hyperlipidemia and diabetes mellitus; assay: 14-week open-label forced dose-escalation study of P5P in hypertensive diabetics (concomitant statin); type: in vivo, human; details: individual patient; for Chol:HDL ratio V.1 / HDL cholesterol V.1 / LDL cholesterol V.1 / Total cholesterol V.1 / Triglycerides V.1: V1: 1st visit, Week One, Day 1, on statin; for Triglycerides V.12 / Chol:HDL ratio V.12 / HDL cholesterol V.12 / LDL cholesterol V.12 / Total cholesterol V.12: V12: Last Visit, Week 14, Day 98; for Triglycerides V.12: concomitant P5P (250 to 750 mg once daily) and statin; for Chol:HDL ratio V.12 / HDL cholesterol V.12 / LDL cholesterol V.12 / Total cholesterol V.12: concomitant P5P and statin
# Text: Patient Definition-Patients meeting all of the inclusion criteria and none of the exclusion criteria were eligible for enrollment. The primary inclusion criteria were hypertension and diabetes. At screening all patients must present with or have a history of, uncomplicated, stable, mild to moderate hypertension, (supine diastolic blood pressure SUDBP ≧90 and ≦114 mm Hg) regardless of use or non-use of treatment for this disease. […] The hypertensive patients must present with and have a history (>24 months) of diabetes mellitus (type 1 or 2), that is controlled or uncontrolled, at both screening and treatment initiation visits, to be eligible for inclusion in the study. Other than having diabetes and hypertension, patients must be in good health for their age. A history and physical examination must be within age-related normal limits, or if abnormal, considered clinically insignificant in the opinion of the investigator. Laboratory tests (CBC with differential, prothrombin and partial thrombo-plastin times, platelet count, and urinalysis and blood chemistry panel), must be normal, or if abnormal, considered clinically insignificant. Patients must have a normal ECG or, if abnormal, considered clinically insignificant. […] Essentially, all patients complete a fixed four-week placebo lead-in, to qualify for initiation of active treatment. Eligible patients then begin treatment with 250 mg/day of […]. This dose was administered orally on a daily basis for the next two (2) weeks, subject to dose-limiting side-effects, after which patients are force-titrated to 500 mg/day of […]. […] Thereafter, and for the final four (4) weeks of the study all patients were treated with placebo medication. […] Patients who were on anti-lipid medication prior to the initiation of the study continued their anti-lipid regime throughout the study. Primary Efficacy Evaluations • Supine diastolic blood pressure (SUDBP) measured at specified intervals; • Triglyceride, total cholesterol, LDL cholesterol, and HDL levels measured at specified intervals. […] Dosage Regimens-All patients receive treatment medication once daily, in the morning one hour before breakfast. At each dosing, the prescribed number of tablets will be taken orally, with water, to allow for the following dosing levels: The first dose of study medication is administered at clinic under the supervision of clinic personnel. Patients previously on anti-lipid therapy continued their anti-lipid regime unchanged throughout the study.
# [2] = read-out: Expected Inhibitor IC50, value expected from assay validation (mean ± S.D., n ≧ 8 experiments)
# [3] = read-out: Observed Inhibitor IC50
# T3 sequence (P05181 whole entry): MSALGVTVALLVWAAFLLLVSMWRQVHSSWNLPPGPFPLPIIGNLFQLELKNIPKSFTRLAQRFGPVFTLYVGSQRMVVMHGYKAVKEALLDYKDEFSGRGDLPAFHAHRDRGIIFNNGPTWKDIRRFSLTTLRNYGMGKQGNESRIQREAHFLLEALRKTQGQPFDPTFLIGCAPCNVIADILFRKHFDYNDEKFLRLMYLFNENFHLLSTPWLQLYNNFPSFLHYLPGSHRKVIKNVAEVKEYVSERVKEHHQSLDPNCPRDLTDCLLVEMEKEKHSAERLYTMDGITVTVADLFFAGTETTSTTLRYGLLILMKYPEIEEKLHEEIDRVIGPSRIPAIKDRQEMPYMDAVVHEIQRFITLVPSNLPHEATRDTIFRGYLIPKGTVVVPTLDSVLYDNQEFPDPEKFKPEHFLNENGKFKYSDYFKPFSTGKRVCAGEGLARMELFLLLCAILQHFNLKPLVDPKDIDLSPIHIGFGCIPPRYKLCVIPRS
IC50 (CYP2E1; [3]),"IC50 (CYP2E1; value expected from assay validation (mean ± S.D., n ≧ 8 experiments), read-out: Expected Inhibitor IC50)",SMILES,IC50 (CYP2A6; [2]),IC50 (CYP2A6; [3]),IC50 (CYP2B6; [2]),IC50 (CYP2B6; [3]),Chol:HDL ratio V.1 [1],HDL cholesterol V.1 [1],LDL cholesterol V.1 [1],Total cholesterol V.1 [1],Triglycerides V.1 [1],Triglycerides V.12 [1],Chol:HDL ratio V.12 [1],HDL cholesterol V.12 [1],LDL cholesterol V.12 [1],Total cholesterol V.12 [1]
,,N[C@@H]1C[C@H]1c1ccccc1 (racemic) [Tranylcypromine],0.99 ± 0.209 µM,0.605 µM,8.82 ± 2.43 µM,6.59 µM,,,,,,,,,,
3.56 µM,5.06 ± 1.96 µM,"CCN(CC)C(=S)S [DDTC, Diethyldithiocarbamic acid]",,,,,,,,,,,,,,
,,"CC(C)c1c(C(=O)Nc2ccccc2)c(-c2ccccc2)c(-c2ccc(F)cc2)n1CC[C@@H](O)C[C@@H](O)CC(=O)O [Lipitor, atorvastatin]",,,,,5.0 and 2.2,43 mg/dL and 62 mg/dL,123 mg/dL and 55 mg/dL,217 mg/dL and 136 mg/dL,255 mg/dL and 96 mg/dL,179 mg/dL and 106 mg/dL,5.6 and 2.1,48 mg/dL and 75 mg/dL,183 mg/dL and 63 mg/dL,267 mg/dL and 159 mg/dL
,,"CC[C@H](C)C(=O)O[C@H]1C[C@H](O)C=C2C=C[C@H](C)[C@H](CC[C@@H](O)C[C@@H](O)CC(=O)O)[C@H]21 [Pravachol, pravastatin]",,,,,9.5,33 mg/dL,,313 mg/dL,667 mg/dL,365 mg/dL,8.4,29 mg/dL,,243 mg/dL
,,"CCC(C)(C)C(=O)O[C@H]1C[C@@H](C)C=C2C=C[C@H](C)[C@H](CC[C@@H]3C[C@@H](O)CC(=O)O3)[C@H]21 [Zocor, simvastatin]",,,,,3.9 and 6.3,39 mg/dL and 43 mg/dL,80 mg/dL and 185 mg/dL,152 mg/dL and 272 mg/dL,164 mg/dL and 222 mg/dL,212 mg/dL and 187 mg/dL,4.1 and 5.8,35 mg/dL and 40 mg/dL,68 mg/dL and 153 mg/dL,145 mg/dL and 230 mg/dL

# Reference: patent publication US20070280915A1, “Combination Therapies Employing A Composition Comprising A Hmg Coa Reductase Inhibitor And A Vitamin B6 Related Compound” (priority 2003, published 2007)
